Laboratory results reported in patent publication US9623073B2, “Learning motivation improvers” (SUNTORY HOLDINGS LIMITED, priority 2009, dated 2017).
Read-outs that look alike come from different tables or passages of the source.

Columns and labels:
[1] = molecular target: T1, human serotonin transporter expressed in CHO cells (Homo sapiens, UniProt P31645); assay: Inhibitory activity on serotonin transporter binding (3H-imipramine)
T1 construct: expressed in transfected cells; host or cells: CHO cells
Protocol: As used herein, the term “SSRI antidepressant” is intended to mean an agent that selectively binds to the serotonin transporter and inhibits the reuptake of serotonin through this serotonin transporter. Inhibitory activity on serotonin transporter binding may be measured, for example, as described in Eur. J. Pharmacol., 368: 277-283, 1999. Namely, it is measured by determining whether ^3H-labeled imipramine binds to the human serotonin transporter expressed in CHO cells.
(§1) Various cyclic dipeptides were measured for their inhibitory activity on serotonin transporter binding and norepinephrine transporter binding, as described in the prior documents mentioned above (Eur J Pharmacol, 368, 277-283, 1999 for inhibitory activity on serotonin transporter binding; and Nature, 350, 350-354, 1991 for inhibitory activity on noradrenaline transporter binding). Compound C was synthesized by Peptide Institute, Inc., Japan, and the other cyclic dipeptides were purchased from Bachem AG (Bubendorf, Switzerland). The results were expressed as IC50 values, i.e., the concentrations of the various cyclic peptides required for 50% inhibition of binding to each transporter (Table 1).

C57BL/6 mice = assay: Morris water maze (MWM) after open space swimming (OSS), learning motivation; assay type: in vivo; conditions: for improving effect on learning motivation over control group (OSS-Vehicle): 20 mg/kg, MWM, FIG. 2
Protocol: On the other hand, the Morris water maze test has been reported as a method for measuring spatial memory and learning (Learn. Motiv. 12, 239-260 (1981)). In this test, the time required to reach an escape platform (escape latency) is used as a parameter for evaluation, because mice will remember their surrounding scenery and swim in a pool filled with water to try to find and reach the escape platform, which is a goal, with their memory as a guide. Since mice to be used in this test are treated to reduce their motivation by being allowed to swim in a pool having no escape platform before the Morris water maze test, a reduction in the time required to reach the escape platform can be regarded as an improvement in learning motivation.
Compound A was evaluated for its antidepressive effect and enhancing effect on learning motivation by the method known in the art, i.e., Morris Water Maze (MWM).
First, water which had been colored black with Indian ink was filled into a cylindrical tank of 90 cm diameter and 35 cm height to give a water depth of 20 cm, and the water temperature was set to 22±1° C. To this tank, C57BL/6 mice (male, 9 weeks of age) were each transferred and allowed to experience open space swimming (OSS). Upon OSS, mice will cause changes in their behavior and enter a state corresponding to depression. After repeating OSS for 5 days, the mice were divided into 7 groups.
Next, in the above cylindrical tank of 90 cm diameter and 35 cm height, an escape platform of 10 cm diameter was placed at a water depth of 0.5 cm. The above 7 groups of mice were each orally administered with compound A (Bachem AG (Bubendorf, Switzerland)) or with a comparative drug, fluvoxamine maleate, in the form of a suspension in physiological saline. After 60 minutes, each mouse was transferred to the tank provided with the escape platform, and measured for the time required to find out the invisible escape platform placed below the water surface (i.e., escape latency) to evaluate the spatial memory and learning ability of each mouse (MWM). As control mice, animals experiencing no OSS were administered with physiological saline and subjected to MWM. MWM was repeated five times a day for 10 days.
In the same manner as shown in Example 2, mice were administered with 20 mg/kg compound A and then subjected to the MWM test. As a control, a linear dipeptide (Phe-Phe) was administered at 20 mg/kg, followed by the MWM test.
In the same manner as shown in Example 2, another group receiving 0.002 mg/kg administration was prepared and subjected to the same MWM test.

[2] = molecular target: T2, human norepinephrine transporter expressed in CHO cells (Homo sapiens, UniProt P23975); assay: Inhibitory activity on norepinephrine transporter binding (3H-nisoxetine); conditions: for IC50: concentration required for 50% inhibition of binding
T2 construct: expressed in transfected cells; host or cells: CHO cells
Protocol: The term “SNRI antidepressant” is intended to mean an agent that binds to both serotonin and norepinephrine transporters, and inhibits the reuptake of serotonin and norepinephrine. Inhibitory activity on norepinephrine transporter binding may be measured, for example, as described in Nature, 350: 350-354, 1991. Namely, it is measured by determining whether ^3H-labeled nisoxetine binds to the human norepinephrine transporter expressed in CHO cells.
as §1

[3] = Genetic toxicity studies (Ames test, chromosomal aberration test, mouse micronucleus test)
rats = assay: 28-day repeated dose toxicity study; assay type: in vivo
mice = assay: Single-dose (acute) toxicity study; assay type: in vivo; conditions: administered at 2 g/kg
[4] = concentration required for 50% inhibition of binding, read-out: IC50, serotonin transporter (converted)

T2 sequence (P23975 whole entry): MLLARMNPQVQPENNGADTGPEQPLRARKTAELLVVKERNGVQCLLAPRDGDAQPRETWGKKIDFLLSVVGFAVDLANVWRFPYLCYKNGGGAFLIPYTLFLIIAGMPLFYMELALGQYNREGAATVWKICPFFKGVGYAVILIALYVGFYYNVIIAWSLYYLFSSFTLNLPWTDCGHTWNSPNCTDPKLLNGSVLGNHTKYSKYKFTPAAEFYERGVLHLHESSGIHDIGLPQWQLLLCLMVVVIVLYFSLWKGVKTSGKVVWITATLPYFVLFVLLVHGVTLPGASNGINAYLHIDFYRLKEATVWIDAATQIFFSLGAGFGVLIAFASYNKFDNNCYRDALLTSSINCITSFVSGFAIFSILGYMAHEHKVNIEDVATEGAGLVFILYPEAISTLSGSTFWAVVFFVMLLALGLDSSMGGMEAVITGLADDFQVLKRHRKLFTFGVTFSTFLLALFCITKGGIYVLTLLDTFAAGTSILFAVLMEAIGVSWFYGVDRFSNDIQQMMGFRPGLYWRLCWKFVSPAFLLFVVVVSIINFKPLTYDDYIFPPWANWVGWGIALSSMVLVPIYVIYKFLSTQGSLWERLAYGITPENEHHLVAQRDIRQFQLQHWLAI
T1 sequence (P31645 whole entry): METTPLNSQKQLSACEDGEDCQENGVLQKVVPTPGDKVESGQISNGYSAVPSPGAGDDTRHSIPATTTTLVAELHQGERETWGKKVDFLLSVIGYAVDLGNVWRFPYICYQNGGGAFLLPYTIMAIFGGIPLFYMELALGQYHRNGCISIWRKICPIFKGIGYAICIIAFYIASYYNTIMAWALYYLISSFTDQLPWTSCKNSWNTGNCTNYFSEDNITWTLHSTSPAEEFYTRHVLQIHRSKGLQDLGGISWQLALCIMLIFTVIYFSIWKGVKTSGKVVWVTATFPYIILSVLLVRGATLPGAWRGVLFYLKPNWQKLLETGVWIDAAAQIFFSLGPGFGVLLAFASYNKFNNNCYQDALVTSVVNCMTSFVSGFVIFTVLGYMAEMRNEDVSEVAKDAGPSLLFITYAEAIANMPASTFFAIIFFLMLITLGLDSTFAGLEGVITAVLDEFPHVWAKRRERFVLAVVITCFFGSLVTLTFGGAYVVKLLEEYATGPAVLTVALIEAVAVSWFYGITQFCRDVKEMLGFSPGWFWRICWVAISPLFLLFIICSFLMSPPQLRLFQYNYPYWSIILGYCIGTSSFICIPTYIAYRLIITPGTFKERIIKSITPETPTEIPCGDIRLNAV

IC50 [2] [mM]	Compound	inhibitory activity on serotonin transporter binding (in words) [1]	IC50 [1, 4] [mM]	inhibitory activity on norepinephrine transporter binding (in words) [2]	further results
	O=C1N[C@@H](Cc2c[nH]cn2)C(=O)N2CCC[C@@H]12 [Compound B, pyrrolo[1,2-a]pyrazine-1,4-dione,hexahydro-3-(1H-imidazol-4-ylmethyl)-,(3S,8aS)]	have inhibitory activity on serotonin transporter binding	2.48		
	Phe-Phe [reference compound]				improving effect on learning motivation over control group (OSS-Vehicle) (C57BL/6 mice): not confirmed to have a significant effect
2	CC(C)C[C@@H]1NC(=O)[C@@H]2CCCN2C1=O [Compound E, pyrrolo[1,2-a]pyrazine-1,4-dione,hexahydro-3-(2-methylpropyl)-,(3S,8aS)]			have inhibitory activity on norepinephrine transporter binding	
10.7	CC(C)[C@@H]1NC(=O)[C@@H]2CCCN2C1=O [Compound F, pyrrolo[1,2-a]pyrazine-1,4-dione,hexahydro-3-(1-methylethyl)-,(3S,8aS)]			have inhibitory activity on norepinephrine transporter binding	
	O=C1N[C@@H](Cc2ccccc2)C(=O)N[C@H]1Cc1ccccc1 [Compound A, 2,5-piperazinedione,3,6-bis(phenylmethyl)-,(3S,6S)]	have inhibitory activity on serotonin transporter binding	0.00815		mutagenicity [3]: no mutagenicity; maximum no-effect dose (rats): ≥ 2 g/kg/day; toxicity in single-dose (acute) toxicity study (mice): no toxicity; reduction of escape latency compared to control group (OSS-Saline) (C57BL/6 mice; 0.02 mg/kg oral, at 10 days of MWM): around 20%; time required to reach the escape platform versus fluvoxamine maleate group (C57BL/6 mice; 20 mg/kg oral, at 10 days of MWM): substantially the same; improving effect on learning motivation over control group (OSS-Vehicle) (C57BL/6 mice): significant improving effect on learning motivation; human dose predicted from the effective dose in mice (C57BL/6 mice; 1/10 of the mouse dose 0.02 mg/kg): 0.1 mg/human (50 kg); escape latency, dose dependence (C57BL/6 mice; OSS mice, oral, MWM for 10 days, FIG. 1): dose-dependent reduction in the escape latency; dose at which the effect is exerted (C57BL/6 mice; mice, time to reach the escape platform at 7 days of MWM, FIG. 3): ≥ 0.02 mg/kg; IC50 ([1]; read-out: concentration (IC50) required for 50% inhibition of serotonin transporter binding): 0.0081 mM
0.148	O=C1N[C@@H](Cc2c[nH]c3ccccc23)C(=O)N[C@H]1Cc1c[nH]c2ccccc12 [Compound D, 2,5-piperazinedione,3,6-bis(1H-indol-3-ylmethyl)-,(3S,6S)]			have inhibitory activity on norepinephrine transporter binding	
	O=C1N[C@@H](Cc2c[nH]c3ccccc23)C(=O)N2CCC[C@@H]12 [Compound C, pyrrolo[1,2-a]pyrazine-1,4-dione,hexahydro-3-(1H-indol-3-ylmethyl)-,(3S,8aS)]	have inhibitory activity on serotonin transporter binding	3.74		
